Results: publication PMC9103789 (International Journal of Molecular Sciences, 2022)
pIC50, pKi: −log10 of the molar value. “And” between values parts separate entries of the source, which are not always exact repeats. Identical values can stand only once.

Key:
CYP3A [1] = assay: IC50 shift assay in pooled HLMs (testosterone 6β-hydroxylation); format: in vitro ADME; settings: human, pooled human liver microsomes, pH 7.4, probe testosterone (200 μM); for IC50 at 30 min / pIC50: pooled HLMs; for IC50 at 30 min: 30 min preincubation with NADPH; for pIC50: no preincubation
Description: Pooled HLMs were used in this assay to determine the IC50 shift and identify time-dependent inhibition. The experiment was divided into two groups, depending on preincubation status. […] In all samples, the final concentrations of organic solvents were not more than 1% (V/V). Schizandrol (A or B) was pre-incubated with the pooled HLMs and testosterone for 3 min at […]. In the groups without 30-minute preincubation, the reaction was started upon the addition of NADPH and terminated by 200 μL of ice-cooled methanol containing 0.315 μM of prednisolone (internal standard). […] Next, testosterone was added to initiate the reaction. The reaction was terminated with the same method. All experiments were carried out in triplicates.
The formation of 6β-hydroxytestosterone in a control group was used as a surrogate marker for remaining enzymes’ activity. […] IC50 shift value was determined by Equation (2). […] (2) IC50 shift=IC50 without NADPH preincubation/IC50 with NADPH preincubation

CYP3A (pooled HLMs) = assay: Reversible inhibition (RI) assay, tacrolimus metabolism in pooled HLMs; format: in vitro ADME, human; settings: Dixon plot
Description: (§1) The reactions started upon the addition of NADPH and were terminated after 10 min by adding 200 μL of ice-cooled acetonitrile containing 0.1 μM of ascomycin (internal standard). […] The reaction was also terminated with ice-cooled acetonitrile. All experiments were carried out in triplicates. […] The intersection of lines was used to calculate the Ki value.

CYP3A [2] = assay: Time-dependent inhibition (TDI) assay in pooled HLMs; format: in vitro ADME, human; settings: for kinact: human, pooled human liver microsomes, probe testosterone (200 μM), 6β-hydroxytestosterone formation
Description: (§2) A two-step protocol was followed to perform the general TDI assay. […] The reaction was initiated upon addition of NADPH (1 mM). At the designated time points (0, 5, 10, 20, or 30 min), an aliquot (20 μL) of the incubation mixture was transferred to a 180-microliter pre-warmed solution containing PBS (0.1 M), testosterone (200 μM) and NADPH (1 mM) for another 10-minute incubation. […] For the CYP3A5 experiment, CYP3cide and CYP3A5 * 1/*3 HLMs were pre-warmed for 3 min before the reaction initiation. […] All experiments were carried out in triplicates.
(§3) [I] stands for the inhibitor concentration. A high ratio of kinact over KI indicates great inhibitory potency. (3) kobs=kinact×[I]/KI+[I]

CYP3A4 = molecular target: T1, CYP3A4 (Homo sapiens, UniProt P08684); assay: Time-dependent inhibition (TDI) assay in CYP3A5 *3/*3 HLMs; format: in vitro ADME; settings: for KI / kinact/KI: CYP3A4, genotyped HLMs; for kinact: human, CYP3A5 *3/*3 genotyped human liver microsomes, probe testosterone (200 μM), 6β-hydroxytestosterone formation
T1 construct: replacing pooled HLMs with CYP3A5 * 3/*3 HLMs; tissue Transheep Co., Ltd. (Shanghai, China) lot: 0710253; host or cells: human liver microsomes, CYP3A5 *3/*3 genotype
T1 sequence (P08684 whole entry): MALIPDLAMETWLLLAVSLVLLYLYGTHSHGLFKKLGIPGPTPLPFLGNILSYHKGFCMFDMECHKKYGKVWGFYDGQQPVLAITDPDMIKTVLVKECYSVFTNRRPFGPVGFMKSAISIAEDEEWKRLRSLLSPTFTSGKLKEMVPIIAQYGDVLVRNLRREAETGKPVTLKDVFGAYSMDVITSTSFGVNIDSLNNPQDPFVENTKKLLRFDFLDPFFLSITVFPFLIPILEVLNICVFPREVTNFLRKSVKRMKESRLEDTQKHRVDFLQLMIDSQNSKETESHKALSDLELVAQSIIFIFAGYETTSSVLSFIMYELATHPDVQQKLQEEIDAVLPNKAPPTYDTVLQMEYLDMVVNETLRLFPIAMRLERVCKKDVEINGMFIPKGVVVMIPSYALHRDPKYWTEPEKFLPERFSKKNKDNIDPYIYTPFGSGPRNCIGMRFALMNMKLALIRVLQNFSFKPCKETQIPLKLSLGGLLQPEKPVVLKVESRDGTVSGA
Description: as §2, §3

[3] = Intrinsic clearance in human liver microsomes (in-house data); format: in vitro ADME; settings: read-out: CLint,HLM
Text: All physicochemical and in vitro pharmacokinetic parameters were obtained from the literature or predicted by Simcyp® Simulator (version 16, Certara, Sheffield, U.K.). The intrinsic clearance value of pooled HLMs and human tacrolimus PBPK model was retrieved from our previous publication. The models for CYP3A5 expressers/non-expressers were built by modifying our established model with intrinsic clearance values of each CYP isoform. With the inhibitory parameters acquired from our experiments, a DDI module was incorporated into the PBPK model of tacrolimus.

[4] = design: method as in PMID 25392942; settings: after oral administration of WZC, healthy Chinese, plasma; cited from earlier work
CYP3A [5] = assay: Reversible inhibition (RI) assay, tacrolimus metabolism in pooled HLMs; format: in vitro ADME, human; settings: human, pooled human liver microsomes, pH 7.4, probe tacrolimus (0.25, 0.5, 1, 2 μM), Dixon plot, tacrolimus substrate
Description: as §1

[6] = molecular target: T2, CYP3A4 (CYP3A5 *3/*3 HLMs) (Homo sapiens, UniProt P08684); assay: Reversible inhibition (RI) assay in genotyped HLMs; format: in vitro ADME; settings: Dixon plot, tacrolimus substrate
T2 construct: replacing pooled HLMs with CYP3A5 * 3/*3 HLMs; tissue Transheep Co., Ltd. (Shanghai, China) lot: 0710253; host or cells: human liver microsomes, CYP3A5 *3/*3 genotype
Description: (§4) The reactions started upon the addition of NADPH and were terminated after 10 min by adding 200 μL of ice-cooled acetonitrile containing 0.1 μM of ascomycin (internal standard). […] The reaction was also terminated with ice-cooled acetonitrile. All experiments were carried out in triplicates.
(§5) Linear regression implemented in GraphPad Prism was plotted with the reciprocal value of metabolic reaction rate (1/v) against inhibitor concentration. The intersection of lines was used to calculate the Ki value.

[7] = molecular target: T3, CYP3A5 (CYP3A5 *1/*3 HLMs + CYP3cide) (Homo sapiens, UniProt P20815); assay: Reversible inhibition (RI) assay in genotyped HLMs with CYP3cide; format: in vitro ADME; settings: Dixon plot, tacrolimus substrate
T3 construct: For the CYP3A5 experiment, CYP3cide and CYP3A5 * 1/*3 HLMs were pre-warmed; tissue Transheep Co., Ltd. (Shanghai, China) lot: 0710232; host or cells: human liver microsomes, CYP3A5 *1/*3 genotype, treated with CYP3cide
Description: as §4, §5

CYP3A5 = molecular target: T4, CYP3A5 (Homo sapiens, UniProt P20815); assay: Time-dependent inhibition (TDI) assay in CYP3A5 *1/*3 HLMs with CYP3cide; format: in vitro ADME
T4 construct: For the CYP3A5 experiment, CYP3cide and CYP3A5 * 1/*3 HLMs were pre-warmed; tissue Transheep Co., Ltd. (Shanghai, China) lot: 0710232; host or cells: human liver microsomes, CYP3A5 *1/*3 genotype, treated with CYP3cide
T4 sequence (P20815 whole entry): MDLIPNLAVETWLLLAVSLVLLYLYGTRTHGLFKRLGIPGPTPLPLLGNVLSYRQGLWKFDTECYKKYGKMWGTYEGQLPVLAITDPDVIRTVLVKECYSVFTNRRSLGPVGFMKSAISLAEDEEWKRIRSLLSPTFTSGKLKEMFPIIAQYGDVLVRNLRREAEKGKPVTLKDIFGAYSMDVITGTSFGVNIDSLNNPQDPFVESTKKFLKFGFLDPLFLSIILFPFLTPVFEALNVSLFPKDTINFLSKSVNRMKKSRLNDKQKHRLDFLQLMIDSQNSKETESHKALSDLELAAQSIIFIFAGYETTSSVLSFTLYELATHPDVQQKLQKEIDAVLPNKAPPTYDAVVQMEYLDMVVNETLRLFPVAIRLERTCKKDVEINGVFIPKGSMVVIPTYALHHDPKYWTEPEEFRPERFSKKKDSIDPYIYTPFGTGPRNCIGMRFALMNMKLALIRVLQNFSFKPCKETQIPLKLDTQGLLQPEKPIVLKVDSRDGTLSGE
Description: as §2, with “incubation. The reaction was stopped with ice-cooled acetonitrile containing prednisolone (0.315 μM).” for “incubation.”
Kinetic parameters of the TDI (KI and kinact refer to the inhibitor concentration causing half-maximal inactivation and the maximal inactivation rate constant, respectively) were determined with Equation (3). kobs refers to the observed inactivation rate of the affected enzyme, determined by the negative slope of the linear regression. kinact is calculated with the negative reciprocal value of the straight line at the Y-intercept, while the interception on X-axis represents KI. [I] stands for the inhibitor concentration. A high ratio of kinact over KI indicates great inhibitory potency. (3) kobs=kinact×[I]/KI+[I]

[8] = design: method as in PMID 24195812; settings: rats, oral administration of SZB; cited from earlier work
[9] = design: method as in PMID 32250458; settings: cited from earlier work

Row | SMILES | IC50 at 30 min (CYP3A [1]) | pIC50 (CYP3A [1]) | reversible inhibition on CYP3A (pattern) (CYP3A (pooled HLMs)) | KI (CYP3A [2]) | kinact/KI (CYP3A [2]) | kinact (CYP3A [2]) | KI (CYP3A4) | kinact/KI (CYP3A4) | kinact (CYP3A4) | microsomal CLint [3] | AUC, observed [4] | Cmax, observed [4] | Tmax, observed [4] | other results
1 | COc1cc2c(c(OC)c1OC)-c1c(cc(OC)c(OC)c1OC)C[C@](C)(O)[C@@H](C)C2 [SZA, Schizandrol A] | 40400 nM | 4.20 | little reversible inhibition | 15625 nM | 30.93 M⁻¹ s⁻¹ | 0.000483 s⁻¹ | 15380 nM | 26 M⁻¹ s⁻¹ | 0.0004 s⁻¹ | 50 µL/min/mg | 467.14 ng·h/mL | 111.37 ng/mL | 1.81 h | IC50 shift at 30 min (CYP3A [1]; IC50 without NADPH preincubation / IC50 with NADPH preincubation): 1.57
2 | COc1cc2c(c(OC)c1OC)-c1c(cc3c(c1OC)OCO3)C[C@H](C)[C@@](C)(O)C2 [SZB, Schizandrol B] | 560 nM | 4.92 | competitive and reversible inhibition pattern | 430 nM | 1705.5 M⁻¹ s⁻¹ | 0.000733 s⁻¹ | 690 nM | 8937 M⁻¹ s⁻¹ | 0.00617 s⁻¹ | 4.5 µL/min/mg | 242.97 ng·h/mL | 65.18 ng/mL | 1.13 h | Ki at 10 min (CYP3A [5]): 5820 nM; pKi [6]: 5.66 and 5.69; pKi [7]: 5.69 and 5.66; KI (CYP3A5; CYP3A5, genotyped HLMs): 500 nM; kinact/KI (CYP3A5; CYP3A5, genotyped HLMs): 300 M⁻¹ s⁻¹; kinact (CYP3A5; human, CYP3A5 *1/*3 genotyped human liver microsomes with CYP3cide, probe testosterone (200 μM), 6β-hydroxytestosterone formation, with CYP3cide (concentration not stated for this test)): 0.00015 s⁻¹; increase in systemic exposure of tacrolimus [8]: 598.4%; increase in bosutinib exposure [9]: 200%
